The test system of one test is ST-02-0322. The test can be described thus: PDX cytotoxicity assay, stomach PDX ST-02-0322. The class given is cell-based. The protocol:
(§1) PDX-derived cell cultures were obtained from tumors explanted from mice and isolated by mechanical and enzymatic dissociation. […] Cells were harvested and seeded in 96-wells plates at a density of 1.25 to 5×10^3 cells/well for cytotoxicity assays. Cells were incubated 48 h at 37° C. prior to addition of test molecules and vehicle (DMSO, 0.1%) at desired final concentrations. Cell viability was assessed before drugs' addition (T0) and 5 days after test molecules addition by measuring ATP cell content using CellTiter-Glo® Luminescent Cell Viability Assay (Promega) according to the manufacturer's instructions. Luciferase activity was measured on a luminometer (PerkinElmer® EnVision™). Each concentration of compounds was tested in triplicate.
(§2) Viability was calculated as a percentage of ATP value compared to vehicle treated controls.
(§3) For PDX primary cell cultures, the tumour tissue was washed with PBS containing antibiotic-antimycotic and non-tumour tissue and necrotic tumour tissues were separated. The tumour tissue was transferred to a new dish and cut into 1˜2 mm^3 fragments, resuspended in RPMI-1640 medium and centrifuged at 1,200 rpm for 6 min at room temperature. The pelleted material was resuspended with 15 mL of Tumour Cell Digestion Solution and incubated at 37° C. for 1 hour with agitation. […]

For a further test, the system named is brain cancer cell. The test can be described thus: Cell viability assay, brain cancer cell lines (summary). The class given is cell-based. Particulars: summary of Tables 3A-D; read-out: IC50s, brain cancer cell growth. Here is the method:
(§4) Antitumor activity of the compounds and doxorubicin as a positive control was assessed by using the CellTiter-Blue Cell Viability Assay (Promega, #G8082) or CellTiter-Glow® Luminescent Cell Viability assay (Promega # G7572) according to the manufacturer's instructions. The compounds were tested at 5 or 6 concentrations in half-log increments (highest concentration 30 μM-100 μM) in duplicate or triplicate well conditions.
(§5) Tumor cells were grown at 37° C. in a humidified atmosphere with 5% CO2 in RPMI 1640 or DMEM medium, supplemented with 10% (v/v) fetal calf serum and 50 μg/ml gentamicin for up to 20 passages, and were passaged once or twice weekly. Cells were harvested using TrypLE or PBS buffer containing 1 mM EDTA, and the percentage of viable cells is determined using a CASY Model TT cell counter (OMNI Life Science). Cells were harvested from exponential phase cultures, counted and plated in 96 well flat-bottom microtiter plates at a cell density depending on the cell line's growth rate (4,000-20,000 cells/well depending on the cell line's growth rate, up to 60,000 for hematological cancer cell lines) in RPMI 1640 or DMEM medium supplemented with 10% (v/v) fetal calf serum and 50 μg/ml gentamicin (140 μl/well). Cultures were incubated at 37° C. and 5% CO2 in a humidified atmosphere. After 24 h, 10 μl of test compounds or control medium are added, and left on the cells for another 72 h. Compounds were serially diluted in DMSO, transferred in cell culture medium, and added to the assay plates. The DMSO concentration was kept constant at <0.3% v/v across the assay plate. Viability of cells was quantified by the CellTiter-Blue® cell viability assay (Promega G8081) or CellTiter-Glow® Luminescent Cell Viability assay (Promega # G7572). Fluorescence (FU) was measured by using the EnSpire® multimode plate reader (Perkin Elmer) (excitation λ=570 nm, emission λ=600 nm) or luminescent detection of ATP in viable cells was used as parameter for proliferation. Luminescence was measured with the microplate luminometer (Promega or Perkin Elmer).
(§6) Sigmoidal concentration-response curves were fitted to the data points (test-versus-control, T/C values) obtained for each tumor model using 4 parameter non-linear curve fit (Charles River DRS Datawarehouse Software) or with GraphPad prism 5.02 software. IC50 values are reported as absolute IC50 values, being the concentration of test compound at the intersection of the concentration-response curves with T/C=50%

A further test deals with NAWALMA. The test can be described thus: Cell viability assay, lymphoma cell line NAWALMA. The class given is cell-based. Here is the method: as §4
(§7) Tumor cells were grown at 37° C. in a humidified atmosphere with 5% CO2 in RPMI 1640 or DMEM medium, supplemented with 10% (v/v) fetal calf serum and 50 μg/ml gentamicin for up to 20 passages, and were passaged once or twice weekly. Cells were harvested using TrypLE or PBS buffer containing 1 mM EDTA, and the percentage of viable cells is determined using a CASY Model TT cell counter (OMNI Life Science). Cells were harvested from exponential phase cultures, counted and plated in 96 well flat-bottom microtiter plates at a cell density depending on the cell line's growth rate (4,000-20,000 cells/well depending on the cell line's growth rate, up to 60,000 for hematological cancer cell lines) in RPMI 1640 or DMEM medium supplemented with 10% (v/v) fetal calf serum and 50 μg/ml gentamicin (140 μl/well). […] Viability of cells was quantified by the CellTiter-Blue® cell viability assay (Promega G8081) or CellTiter-Glow® Luminescent Cell Viability assay (Promega # G7572). […]

The next test relates to LY-24-0340. Kind of test: PDX cytotoxicity assay, lymphoma PDX LY-24-0340. In kind it is cell-based. The protocol: as §1, §2, §3
The next test relates to breast cancer cell. Kind of test: Cell viability assay, breast cancer cell lines (summary). In kind it is cell-based. Conditions: summary of Tables 4A and 4B; read-out: IC50s, breast cancer cell growth. The protocol: as §4, §5, §6
The next test concerns K562. Kind of test: Cell viability assay, leukaemia cell line K562. The class given is cell-based. Conditions: Homo sapiens. The protocol:
as §4, §7

In the next test the test system is lung carcinoma cell. Kind of test: Cell viability assay, lung carcinoma cell lines (summary). In kind it is cell-based. Conditions: summary of Tables 7A-E; read-out: IC50s, lung carcinoma cell growth. The protocol: as §4, §5, §6
For a further test, the system named is BR-05-0014E. The test can be described thus: PDX cytotoxicity assay, breast PDX BR-05-0014E. The class given is cell-based. Here is the method: as §1, §2, §3
The next test relates to CO-04-0700. Kind of test: PDX cytotoxicity assay, colon PDX CO-04-0700. The class given is cell-based. The protocol:
as §1, §2, §3

The next test concerns the target T1, PIM1 (Homo sapiens, UniProt P11309).
T1 construct: purchased Eurofins (KINOMEscan assay service); host or cells: E. coli BL21-derived (T7 phage) or HEK-293
Kind of test: KINOMEscan competition binding assay, PIM1. From the text: (§8) The Hill Slope was set to −1.

A further test deals with NALM-6. Kind of test: Cell viability assay, leukaemia cell line NALM-6. The class given is cell-based. Conditions: Homo sapiens; NALM-6 leukaemia cell line. The protocol: as §4, §7
The subject of a further test is DOHH-2. Kind of test: Cell viability assay, lymphoma cell line DOHH-2. The class given is cell-based. Particulars: Homo sapiens; DOHH-2 lymphoma cell line. Here is the method:
as §4, §7

The subject of the next test is NCI-H1299. The test can be described thus: Cell viability assay, non-small cell lung carcinoma cell line NCI-H1299. Particulars: Homo sapiens. The class given is cell-based. The protocol:
as §4, §5, §6

The test system of a further test is CH-17-0091. Kind of test: PDX cytotoxicity assay, bile duct PDX CH-17-0091. In kind it is cell-based. Here is the method:
as §1, §2, §3

In another test the test system is MCF-7. The test can be described thus: Cell viability assay, breast carcinoma cell line MCF-7. The class given is cell-based. Particulars: Homo sapiens, MCF7; MCF-7 breast carcinoma cell line. Here is the method: as §4, §7
In the next test the test system is SC6. Kind of test: PDX cytotoxicity assay, small cell lung carcinoma PDX SC6. In kind it is cell-based. The protocol: as §1, §2, §3
The target in a further test is T2, PIM2 (Homo sapiens, UniProt Q9P1W9).
T2 construct: purchased Eurofins (KINOMEscan assay service); host or cells: E. coli BL21-derived (T7 phage) or HEK-293
Kind of test: KINOMEscan competition binding assay, PIM2.
Text: as §8

A further test relates to MOLT-16. The test can be described thus: Cell viability assay, leukaemia cell line MOLT-16. In kind it is cell-based. Conditions: Homo sapiens; MOLT-16 leukaemia cell line. Here is the method:
as §4, §7

Some results are limits rather than exact numbers.

As a reminder, the Kd is the constant that tells how readily two partners part at equilibrium. High values mean a looser complex, low ones a tighter complex. As for `COc1c(O)ccc2c(=O)cc(-c3ccc(CNCCCCNCCCN)cc3)oc12` [SND164], the IC50 in the test with ST-02-0322 is 5.45 µM; in the test on brain cancer cell, below 10 µM; in the test with NAWALMA it was 2.6 µM; with LY-24-0340 it was below 0.16 µM; with breast cancer cell, below 10 µM; with K562, 3.48 µM. The IC50 was below 20 µM in the test with lung carcinoma cell; 13.3 µM in the test with BR-05-0014E; 7 µM with CO-04-0700; 4.45 µM in the test with NALM-6; 4.3 µM in the test with DOHH-2; 1.25 µM with NCI-H1299. For the same compound, the IC50 in the test with CH-17-0091 was 13.8 µM; in the test on MCF-7, 4.3 µM; with SC6 it was 3.64 µM; in the test on MOLT-16, 4.36 µM. Also, the Kd turned out to be 0.58 µM on PIM1 and 0.63 µM on PIM2.

For the origin of these results see US20240132461A1, “FLAVONE DEAZA SPERMIDINE ANALOGUES AND THEIR USE TREATING CANCER” (FLORATEK PHARMA S.A., priority 2021, published 2024).
